In patent US20040213751A1, “Augmentation of pyrithione activity or a polyvalent metal salt of pyrithione activity by zinc-containing layered material” (priority 2003, published 2004):

Test system: Malassezia furfur (ATCC 14521)
Assay: Minimum inhibitory concentration (MIC) of ZPT in mDixon agar, with and without augmenting material
Format: cell-based
Text: In some cases, materials can augment the activity of antifungal actives. As used herein, the term augmentation is intended to mean enhancement of the antifungal activity of a ZPT-containing composition by the augmenting material to an extent sufficient to permit the use of a lower amount of ZPT without reducing the antifungal inhibition provided by the composition, as compared to the antifungal inhibition that is provided by an otherwise-identical ZPT-containing composition that is free of the augmenting material. Augmenting agents are generally specific to the material being augmented, forming a unique combination and often because there is a specific chemical or biological mechanism required to achieve the augmentation effect. ^1 The Minimum Inhibitory Concentration is indicative of anti-fungal efficacy. Generally, the lower the value of the composition, the better its anti-fungal efficacy, due to increased inherent ability of the anti-dandruff agent to inhibit the growth of microorganisms.
An “augmentation factor” is defined, which is the ratio of the MIC with and without an augmenting agent (at a specified concentration): [formula]
Dilutions of solubilized anti-microbial active were then added to test tubes containing molten mDixon agar. M. furfur inoculum was added to each tube of molten agar, the tube vortexed, and the contents poured into separate sterile petri dishes. […] The lowest tested dilution of anti-microbial active that yields no growth is defined as the Minimal Inhibitory Concentration (MIC).
1) Malassezia furfur was grown in a 250 ml Erlenmeyer flask containing 100 mil “mDIXON” medium at 320 rpm and 30° C. until turbid.
2) Selected dilutions were prepared using an appropriate dilution series, of the anti-microbial active or combination in solvent, which allowed the sample active to be solubilized prior to addition to the final test agar. For each concentration of the ZPT samples, the solvent was “DMSO”; for other samples, the solvent was water or “DMSO” or other suitable solvent.
3) 0.25 ml dilutions of anti-microbial active were added to test tubes containing 9.5 ml molten “mDIXON” agar (held at 45° C. in a water bath).
4) 0.25 M. furfur inoculum (adjusted to 5×10^5 cfu/ml by direct count) was added to each test tube of molten agar.
5) Each tube was vortexed, and the contents poured into separate petri dishes.
6) After the agar solidified, the plates inverted and incubated at 30° for 5 days.
7) The plates were then observed for visible M. furfur growth.

Compound | MIC of ZPT alone (Malassezia furfur, mDixon agar, 30° for 5 days, no augmenting material) [ppm] | Augmentation Benefit (5 ppm augmenting material, effective agent has augmentation factor greater than 1) | MIC of ZPT with 5 ppm augmenting material (Malassezia furfur, mDixon agar, 30° for 5 days, 5 ppm of the named augmenting material) [ppm] | Augmentation Factor (ratio of the MIC of ZPT without and with 5 ppm augmenting material)
[O-]n1ccccc1=S.[O-]n1ccccc1=S.[Zn+2] [ZPT, zinc salt of 1-hydroxy-2-pyridinethione] | 8 |  |  | 
Zinc Stearate |  | No | 8 | 1.0
